Read-outs that look alike come from different tables or passages of the source.
Tests used:
SF126 = test: Cell vitality assay (ATP assay, CellTiter-Glo); assay type: cell-based; conditions: Homo sapiens, SF-126; SF126, 72 h; Table IIa; read-out: IC50 ATP-Assay after 72 h SF126
Procedure, shortened: (§1)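 Cells (1000/well) incubated 72 h with test compound, top dose 12.5 μM, twofold dilutions, DMSO as reference. Lysis reagent added, luminescence recorded; background from cell-free medium wells.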

Hs578T [1] = test: Cell vitality assay (ATP assay, CellTiter-Glo); assay type: cell-based; conditions: Homo sapiens, Hs-578T, 72 h
Procedure, shortened: as §1

U118 = test: Cell vitality assay (ATP assay, CellTiter-Glo); assay type: cell-based; conditions: U118, 72 h; Table IIa; read-out: IC50 ATP-Assay after 72 h U118
Procedure, shortened: as §1

indicated cell line = test: Wound healing migration assay (Table IV); assay type: cell-based; conditions: compounds at 12.5, 6.25, 3.125 μM, 48 h-72 h
Procedure, shortened: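 Cells seeded at 150000/24 well, grown to monolayer overnight, scratched with a pipette tip, then treated with compound at 12.5, 6.25 or 3.125 μM versus DMSO. Stopped by crystal violet fixation at 48-72 h once control wounds closed; IC50 taken as 50% wound size between t0 and t48 or t72.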

Hs578T [2] = test: Matrigel outgrowth assay/branching assay; assay type: cell-based; conditions: Homo sapiens, Hs-578T; HS578T cell line; Table Ib; read-out: Total branching inhibition in Matrigel HS578T
Procedure, shortened: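 Step one: Matrigel (3 mg/ml) is set for 1 h at 37° C. Step two: 5000 cells per well go on in medium with compound (0.78–3.125 μM) or DMSO. Step three: images at 48, 72 and 96 h are scored for complete loss of branching.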

[3] = HS578T cell line, Table Ib, read-out: IC50 ATP-Assay HS578T after 72 h
[4] = Hs578T, Table IIa, read-out: IC50 ATP-Assay after 72 h Hs578T
[5] = Homo sapiens, A 172, A172 cells, read-out: IC50 Wound healing Assay A172
[6] = Homo sapiens, SF-126, SF126 cells, read-out: IC50 Wound healing Assay SF126
[7] = Homo sapiens, C8161 cells, read-out: IC50 Wound healing Assay C8161
[8] = SF763 cells, read-out: IC50 Wound healing Assay SF763
[9] = U118 cells, read-out: IC50 Wound healing Assay U118

melting point [°C] | IC50 (indicated cell line; [5]) [µM] | IC50 (indicated cell line; [6]) [µM] | IC50 (indicated cell line; [7]) [µM] | IC50 (indicated cell line; [8]) [µM] | IC50 (indicated cell line; [9]) [µM] | SMILES | IC50 (SF126) [µM] | IC50 (Hs578T [1]; [3]) [µM] | IC50 (Hs578T [1]; [4]) [µM] | IC50 (U118) [µM] | IC50 (Hs578T [2]) [µM]
113 to 116 | ≤ 12.5 | ≤ 12.5 | ≤ 12.5 | ≤ 12.5 | ≤ 12.5 | COc1cc2c(Oc3ccc(NS(=O)(=O)c4ccccc4[N+](=O)[O-])cc3F)ccnc2cc1OCCCN1CCCCC1 [Example 7, N-{3-Fluoro-4-[6-methoxy-7-(3-piperidin-1-yl-propoxy)-quinolin-4-yloxy]-phenyl}-2-nitro-benzenesulfonamide] | 12.5 to 50 | ≤ 12.5 | ≤ 12.5 | 12.5 to 50 | 10 to 25
171 to 172 | ≤ 12.5 | ≤ 12.5 |  |  | ≤ 12.5 | COc1cc2c(Oc3ccc(NS(=O)(=O)c4c(Cl)cccc4Cl)cc3Cl)ccnc2cc1OCCCN1CCN(C)CC1 [Example 119, 2,6-Dichloro-N-(3-chloro-4-{6-methoxy-7-[3-(4-methyl-piperazin-1-yl)-propoxy]-quinolin-4-yloxy}-phenyl)-benzenesulfonamide] | ≤ 12.5 | ≤ 12.5 |  | ≤ 12.5 | ≤ 10
146 to 148 | ≤ 12.5 | ≤ 12.5 |  |  | ≤ 12.5 | COC(=O)c1sccc1S(=O)(=O)Nc1ccc(Oc2ccnc3cc(OCCCN4CCN(C)CC4)c(OC)cc23)c(F)c1 [Example 158, 3-(3-Fluoro-4-{6-methoxy-7-[3-(4-methyl-piperazin-1-yl)-propoxy]-quinolin-4-yloxy}-phenylsulfamoyl)-thiophene-2-carboxylic acid methyl ester] | ≤ 12.5 | ≤ 12.5 |  | ≤ 12.5 | 10 to 25
168 to 170 |  |  | ≤ 12.5 | 12.5 to 50 |  | COc1cc2c(Oc3ccc(NS(=O)(=O)c4ccccc4OC)cc3F)ccnc2cc1OCCCN1CCN(C)CC1 [Example 33, N-(3-Fluoro-4-{6-methoxy-7-[3-(4-methyl-piperazin-1-yl)-propoxy]-quinolin-4-yloxy}-phenyl)-2-methoxy-benzenesulfonamide] | ≤ 12.5 |  | ≤ 12.5 | ≤ 12.5 | ≤ 10

The remaining lines, values behind:

SMILES | melting point [°C] | IC50 (indicated cell line; [5]) [µM] | IC50 (indicated cell line; [6]) [µM] | IC50 (indicated cell line; [7]) [µM] | IC50 (indicated cell line; [8]) [µM] | IC50 (indicated cell line; [9]) [µM] | IC50 (SF126) [µM] | IC50 (Hs578T [1]; [3]) [µM] | IC50 (Hs578T [1]; [4]) [µM] | IC50 (U118) [µM] | IC50 (Hs578T [2]) [µM]
COc1cc2c(Oc3ccc(NS(=O)(=O)c4ccc(F)c(F)c4F)cc3F)ccnc2cc1OCCCN1CCCC(C)C1 (stereo not shown) [Example 49, 2,3,4-Trifluoro-N-(3-fluoro-4-{6-methoxy-7-[3-(3-methyl-piperidin-1-yl)-propoxy]-quinolin-4-yloxy}-phenyl)-benzenesulfonamide] | 134 to 136 | ≤ 12.5 | ≤ 12.5 |  |  | ≤ 12.5 | ≤ 12.5 | ≤ 12.5 |  | ≤ 12.5 | 10 to 25
COc1cc2c(Oc3c(Cl)cc(NS(=O)(=O)c4ccccc4C(F)(F)F)cc3Cl)ccnc2cc1OCCCN1CCC(C)CC1 [Example 210, N-(3,5-Dichloro-4-{6-methoxy-7-[3-(4-methyl-piperidin-1-yl)-propoxy]-quinolin-4-yloxy}-phenyl)-2-trifluoromethyl-benzenesulfonamide] | 148 to 151 | ≤ 12.5 | ≤ 12.5 |  |  | ≤ 12.5 | ≤ 12.5 | ≤ 12.5 |  | ≤ 12.5 | ≤ 10
COc1cc2c(Oc3ccc(NS(=O)(=O)c4ccccc4[N+](=O)[O-])cc3F)ccnc2cc1OCCCN1CCCC(C)C1 (stereo not shown) [Example 40, N-(3-Fluoro-4-{6-methoxy-7-[3-(3-methyl-piperidin-1-yl)-propoxy]-quinolin-4-yloxy}-phenyl)-2-nitro-benzenesulfonamide] | 136 to 138 | ≤ 12.5 | ≤ 12.5 |  |  | ≤ 12.5 | ≤ 12.5 | ≤ 12.5 |  | 12.5 to 50 | ≤ 10
